Converted amounts (≈) assume the structure as drawn.
Tests used:
Assay type in all cases: functional
KB = test: Cytotoxicity against human KB cells; details: for EC50: Homo sapiens, KB, read-out: ED50 (the source's name)
P388 [1] = test: In vivo antileukemic activity against mouse P388 cells at 4 mg/kg
P388 [2] = test: In vivo antileukemic activity against mouse P388 cells at 32 mg/kg
P388 [3] = test: In vivo antileukemic activity against mouse P388 cells at 8 mg/kg
P388 [4] = test: In vivo antileukemic activity against mouse P388 cells at 16 mg/kg

Row | Structure (SMILES) | EC50 (KB) | T/C (P388 [3]) | T/C (P388 [4]) | ED50 (KB) | also measured
1 | COc1cc2cc(c1Cl)N1CC(=O)C(C)(O)C(=O)N(C)C(C)C(=O)O[C@@H](CC1=O)[C@]1(C)O[C@H]1[C@H](C)[C@@H]1C[C@@](O)(NC(=O)O1)[C@H](OC)/C=C/C=C(\C)C2OC (stereo partly drawn) | < 0.01 mg/L | – | – | – | T/C (P388 [1]): 153%
2 | COc1cc2cc(c1Cl)N(C)C(=O)C[C@H](OC(=O)[C@H](C)N(C)C(=O)C(C)C)[C@]1(C)O[C@H]1[C@H](C)[C@@H]1C[C@@](O)(NC(=O)O1)[C@@H](OC)/C=C/C=C(\C)C2OC (stereo partly drawn) | < 0.001 mg/L | – | – | – | T/C (P388 [2]): 131%
3 | COc1cc2cc(c1Cl)N(C)C(=O)C[C@H](OC(=O)[C@H](C)N(C)C(=O)C(C)C)[C@]1(C)O[C@H]1[C@H](C)[C@@H]1C[C@@](O)(NC(=O)O1)[C@H](OC)/C=C/C=C(\C)C2O (stereo partly drawn) [COLUBRINOL] | < 0.001 mg/L | – | – | – | T/C (P388 [2]): 159%
4 | C=C(C)C(=O)N(C)[C@@H](C)C(=O)O[C@H]1CC(=O)N(C)c2cc(cc(OC)c2Cl)C(OC)/C(C)=C/C=C/[C@@H](OC)[C@@]2(O)C[C@H](OC(=O)N2)[C@@H](C)[C@@H]2O[C@@]12C (stereo partly drawn) [DEHYDROTREWIASINE] | < 0.01 mg/L | 172% | – | – | –
5 | COc1cc2cc(c1Cl)N(C)C(=O)C[C@H](OC(=O)[C@H](C)NC(=O)C(C)C)[C@]1(C)O[C@H]1[C@H](C)[C@@H]1C[C@@](O)(NC(=O)O1)[C@H](OC)/C=C/C=C(\C)C2OC (stereo partly drawn) [DEMETHYLTREWIASINE] | 0.049 mg/L (≈ 0.0666 µM) | 159% | – | – | –
6 | COc1cc2cc(c1Cl)NC(=O)C[C@H](OC(=O)[C@H](C)N(C)C(=O)C(C)C)[C@]1(C)O[C@H]1[C@H](C)[C@@H]1C[C@@](O)(NC(=O)O1)[C@H](OC)/C=C/C=C(\C)C2OC (stereo partly drawn) [NORTREWIASINE] | – | – | 155% | <1 ×10⁻⁴ ug/ml | –
7 | COc1cc2cc(c1Cl)N1CCC(C)(O)C(=O)NC(C)C(=O)O[C@@H](CC1=O)[C@]1(C)O[C@H]1[C@H](C)[C@@H]1C[C@@](O)(NC(=O)O1)[C@H](OC)/C=C/C=C(\C)C2OC (stereo partly drawn) [TREFLORINE] | – | – | 157% | 2.7 ×10⁻⁴ ug/ml | –
8 | COc1cc2cc(c1Cl)N1CC(O)C(C)(O)C(=O)NC(C)C(=O)O[C@@H](CC1=O)[C@]1(C)O[C@H]1[C@H](C)[C@@H]1C[C@@](O)(NC(=O)O1)[C@H](OC)/C=C/C=C(\C)C2OC (stereo partly drawn) [TRENUDINE] | – | 146% | – | 6.4 ×10⁻⁴ ug/ml | –
9 | COc1cc2cc(c1Cl)N(C)C(=O)C[C@H](OC(=O)[C@H](C)N(C)C(=O)C(C)C)[C@]1(C)O[C@H]1[C@H](C)[C@@H]1C[C@@](O)(NC(=O)O1)[C@H](OC)/C=C/C=C(\C)C2OC (stereo partly drawn) [TREWIASINE] | – | – | 154% | 2 ×10⁻⁴ ug/ml | –

From ChEMBL document CHEMBL1145670, “Additional New Maytansinoids from Trewia nudiflora: 10-Epitrewiasine and Nortrewiasine” (1983)
